According to the NIST ThermoML archive (doi:10.1021/je1003065):

Assay: mn = molality of the nth substance listed, in mol/kg
Conditions: Liquid, Vibrating tube method

[Br-].[Li+] [lithium bromide] + CCO
Conditions	mass density [kg/m3]
348.15 K, 5002 kPa, m1 = 0.2335	761.71
348.15 K, 5002 kPa, m1 = 1.462	838.72
348.15 K, 5004 kPa, m1 = 0.9499	807.6
348.15 K, 5004 kPa, m1 = 2.272	885.02
348.15 K, 5012 kPa, m1 = 2.833	915.98
348.15 K, 5024 kPa, m1 = 3.368	943.65
348.15 K, 5412 kPa, m1 = 0.5972	785.83
348.15 K, 10064 kPa, m1 = 0.9499	812.44
348.15 K, 19957 kPa, m1 = 2.833	928.46
348.15 K, 19985 kPa, m1 = 0.2335	776.82
348.15 K, 19985 kPa, m1 = 0.9499	821.56
348.15 K, 20024 kPa, m1 = 1.462	852.51
348.15 K, 29942 kPa, m1 = 0.9499	830.19
348.15 K, 29985 kPa, m1 = 3.368	963.31
348.15 K, 39784 kPa, m1 = 0.9499	838.22
348.15 K, 39945 kPa, m1 = 0.5972	816.93
348.15 K, 39947 kPa, m1 = 0.2335	794.15
348.15 K, 39957 kPa, m1 = 2.833	943.19
348.15 K, 39978 kPa, m1 = 3.368	970.26
348.15 K, 40002 kPa, m1 = 1.462	868.51
348.15 K, 49921 kPa, m1 = 2.272	920.25
348.15 K, 49926 kPa, m1 = 2.833	949.82
348.15 K, 49927 kPa, m1 = 0.9499	845.97
348.15 K, 59947 kPa, m1 = 0.2335	809.42
348.15 K, 59956 kPa, m1 = 0.5972	831.96
348.15 K, 59986 kPa, m1 = 1.462	882.36
348.15 K, 60002 kPa, m1 = 0.9499	853.14
348.15 K, 60024 kPa, m1 = 3.368	982.97
348.15 K, 69784 kPa, m1 = 0.9499	859.6
348.15 K, 69784 kPa, m1 = 2.272	932.62
348.15 K, 70024 kPa, m1 = 2.833	962.07
348.15 K, 79325 kPa, m1 = 0.9499	865.42
348.15 K, 79924 kPa, m1 = 3.368	994.3
348.15 K, 79956 kPa, m1 = 1.462	894.65
348.15 K, 80004 kPa, m1 = 0.2335	822.02
348.15 K, 80021 kPa, m1 = 0.5972	844.82
348.15 K, 89923 kPa, m1 = 3.368	999.65
348.15 K, 89926 kPa, m1 = 0.2335	827.8
348.15 K, 89931 kPa, m1 = 2.272	944.08
348.15 K, 89932 kPa, m1 = 1.462	900.39
348.15 K, 89935 kPa, m1 = 0.9499	871.34
348.15 K, 89954 kPa, m1 = 2.833	973.13
348.15 K, 99845 kPa, m1 = 1.462	905.92
348.15 K, 99934 kPa, m1 = 3.368	1004.87
348.15 K, 99935 kPa, m1 = 0.9499	876.39
348.15 K, 99945 kPa, m1 = 2.272	949.54
348.15 K, 99957 kPa, m1 = 0.2335	833.35
348.15 K, 99968 kPa, m1 = 2.833	978.42
348.15 K, 99985 kPa, m1 = 0.5972	855.43
348.16 K, 10021 kPa, m1 = 2.272	890.16
348.16 K, 10032 kPa, m1 = 3.368	947.88
348.16 K, 10034 kPa, m1 = 1.462	843.52
348.16 K, 19902 kPa, m1 = 0.5972	799.98
348.16 K, 29784 kPa, m1 = 2.272	906.12
348.16 K, 30024 kPa, m1 = 2.833	936.13
348.16 K, 49923 kPa, m1 = 0.2335	802.07
348.16 K, 49952 kPa, m1 = 3.368	976.77
348.16 K, 59932 kPa, m1 = 2.272	926.65
348.16 K, 69784 kPa, m1 = 1.462	888.55
348.16 K, 70013 kPa, m1 = 0.5972	838.69
348.16 K, 79926 kPa, m1 = 2.833	967.67
348.17 K, 50201 kPa, m1 = 1.462	875.81
348.17 K, 69845 kPa, m1 = 0.2335	816.09
353.09 K, 80053 kPa, m1 = 1.462	891.89
353.1 K, 9980 kPa, m1 = 1.462	839.5
353.1 K, 19703 kPa, m1 = 1.462	848.5
353.1 K, 29947 kPa, m1 = 1.462	857.25
353.1 K, 39836 kPa, m1 = 1.462	865.06
353.1 K, 49993 kPa, m1 = 1.462	872.5
353.1 K, 60279 kPa, m1 = 1.462	879.53
353.1 K, 69928 kPa, m1 = 1.462	885.72
353.1 K, 89979 kPa, m1 = 1.462	897.68
353.1 K, 99915 kPa, m1 = 1.462	903.29
353.11 K, 5043 kPa, m1 = 1.462	834.64
353.13 K, 1217 kPa, m1 = 1.462	830.74
353.13 K, 5143 kPa, m1 = 0.5972	781.1
353.13 K, 10028 kPa, m1 = 2.272	886.04
353.13 K, 20124 kPa, m1 = 2.272	895.23
353.13 K, 29947 kPa, m1 = 2.272	902.89
353.13 K, 89945 kPa, m1 = 0.2335	824.73
353.13 K, 99992 kPa, m1 = 2.272	946.74
353.14 K, 9986 kPa, m1 = 2.833	916.2
353.14 K, 19985 kPa, m1 = 0.2335	772.17
353.14 K, 20259 kPa, m1 = 0.5972	796.52
353.14 K, 29993 kPa, m1 = 0.5972	804.77
353.14 K, 39486 kPa, m1 = 2.272	909.8
353.14 K, 49965 kPa, m1 = 2.833	946.54
353.14 K, 49994 kPa, m1 = 2.272	916.93
353.14 K, 60014 kPa, m1 = 2.272	924.01
353.14 K, 69979 kPa, m1 = 2.272	929.91
353.14 K, 80071 kPa, m1 = 2.272	936.01
353.14 K, 89925 kPa, m1 = 2.833	970.1
353.14 K, 89993 kPa, m1 = 2.272	941.4
353.15 K, 1023 kPa, m1 = 0.2335	752.56
353.15 K, 1302 kPa, m1 = 2.833	908.32
353.15 K, 1405 kPa, m1 = 0.9499	799.45
353.15 K, 5002 kPa, m1 = 0.2335	756.87
353.15 K, 5015 kPa, m1 = 2.833	911.75
353.15 K, 5074 kPa, m1 = 0.9499	803.32
353.15 K, 9985 kPa, m1 = 0.9499	808.32
353.15 K, 10021 kPa, m1 = 0.2335	762.65
353.15 K, 19924 kPa, m1 = 0.9499	817.86
353.15 K, 19927 kPa, m1 = 2.833	924.6
353.15 K, 29784 kPa, m1 = 0.9499	826.6
353.15 K, 29974 kPa, m1 = 0.2335	781.57
